Source: patent US9776979B2, “EBI2 modulators” (Sanford-Burnham Medical Research Institute, priority 2013, dated 2017)

Target: EBI2 (Homo sapiens, UniProt P32249)
Experiment: Cell-based luminescent assay (EBI2 modulation)
Conditions: cell-based luminescence; 7a,25-OHC final assay concentration 80 nM; 60 minutes incubation; read-out: IC50
Experimental: Cell-Based Luminescent Assay
To assess EBI2 modulation, the compounds described herein were assayed in the following cell-based luminescent assay:
1) Plated 600 cells/well in 4 uL of assay media into columns 1-48 of a 1536-well assay plate, using a liquid dispenser.
2) Centrifuged plates at 1000 rpm for 1 minute and covered with lids.
3) Incubated overnight at 37° C., 100% relative humidity, 5% CO2.
1) Centrifuged compound plates containing compounds described herein at 500 rpm for 1 minute.
2) Added compounds into assay plate col 5-48 to final concentration 4-5 uM. Added matching amount of DMSO to positive and negative control wells in columns 1-4.
3) Dispensed 2 ul/well of assay media to columns 1-2 for the positive control wells.
4) Added 2 ul/well of 400 nM 7a,25-OHC (final assay concentration=80 nM) in assay media to columns 3-48 for the negative control and test compound wells.
5) Centrifuged plates at 1000 rpm for 1 minute and re-lid plates.
6) Incubated plates at 37° C., 100% relative humidity, 5% CO2 for 60 minutes.
7) Following 60 minute incubation, delivered 2.5 uL of Detection Reagent solution to each assay plate (Columns 1-48) using a liquid handler.
8) Centrifuged plates at 2000 rpm for 2 minutes and re-lid plates.
9) Incubated plates for 60 minutes at 25 degrees in the dark.
10) Read plates using the Viewlux, Envision or other suitable plate reader using a luminescence detection.
The experimental values were normalized by the difference between values from neutral and stimulator control wells in each plate. Then normalized data was corrected to remove systematic plate patterns due to artifacts such as dispensing tip issues etc.

EBI2, sequence (P32249 whole entry): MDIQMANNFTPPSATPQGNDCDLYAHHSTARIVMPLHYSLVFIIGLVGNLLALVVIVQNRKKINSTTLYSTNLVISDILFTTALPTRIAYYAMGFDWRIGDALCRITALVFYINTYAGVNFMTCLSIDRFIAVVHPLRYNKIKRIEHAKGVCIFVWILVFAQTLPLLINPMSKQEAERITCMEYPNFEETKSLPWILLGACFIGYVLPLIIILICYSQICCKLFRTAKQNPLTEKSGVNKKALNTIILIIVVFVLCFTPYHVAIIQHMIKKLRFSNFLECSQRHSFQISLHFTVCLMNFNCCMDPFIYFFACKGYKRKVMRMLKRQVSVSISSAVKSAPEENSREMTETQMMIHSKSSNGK

| Substance | IC50 [nM] |
| --- | --- |
| 1-(4-{[4-fluoro-2-(trifluoromethyl)phenyl]carbonyl}piperazinyl)-3-[4-(trifluoromethyl)phenyl]prop-2-yn-1-one [Compound C325] | < 100 |
| 1-(4-{[4-fluoro-2-(trifluoromethyl)phenyl]carbonyl}piperazinyl)-3-phenylprop-2-yn-1-one [Compound C321] | < 100 |
| 1-(4-{[4-fluoro-2-(trifluoromethyl)phenyl]methyl}piperazinyl)-3-(4-methylphenyl)prop-2-yn-1-one [Compound C459] | 100 to 500 |
| 1-(4-{[4-fluoro-2-(trifluoromethyl)phenyl]methyl}piperazinyl)-3-[4-(trifluoromethyl)phenyl]prop-2-yn-1-one [Compound C432] | 100 to 500 |
| 1-[4-(diphenylmethyl)piperazinyl]-3-(4-bromo-2-fluorophenyl)prop-2-yn-1-one [Compound C107] | < 100 |
| 1-[4-(diphenylmethyl)piperazinyl]-3-(4-bromophenyl)prop-2-yn-1-one [Compound C50] | < 100 |
| 1-[4-(diphenylmethyl)piperazinyl]-3-[2-(trifluoromethyl)phenyl]prop-2-yn-1-one [Compound C443] | 100 to 500 |
| 1-{4-[(4-bromophenyl)carbonyl]piperazinyl}-3-(4-chlorophenyl)prop-2-yn-1-one [Compound C19] | < 100 |
| 1-{4-[(4-bromophenyl)methyl]piperazinyl}-3-(4-chlorophenyl)prop-2-yn-1-one [Compound C383] | < 100 |
| 1-{4-[(4-fluorophenyl)carbonyl]piperazinyl}-3-[2-(trifluoromethyl)phenyl]prop-2-yn-1-one [Compound C393] | < 100 |
| 1-{4-[(4-fluorophenyl)methyl]piperazinyl}-3-[2-(trifluoromethyl)phenyl]prop-2-yn-1-one [Compound C438] | 100 to 500 |
| 1-{4-[(4-methoxyphenyl)carbonyl]piperazinyl}-3-[2-(trifluoromethyl)phenyl]prop-2-yn-1-one [Compound C373] | < 100 |
| 1-{4-[(4-methoxyphenyl)methyl]piperazinyl}-3-[4-(trifluoromethyl)phenyl]prop-2-yn-1-one [Compound C352] | < 100 |
| 3-(2,3-dichlorophenyl)-1-[4-(diphenylmethyl)piperazinyl]prop-2-yn-1-one [Compound C25] | < 100 |
| 3-(2,3-dichlorophenyl)-1-{4-[(4-chlorophenyl)carbonyl]piperazinyl}prop-2-yn-1-one [Compound C30] | < 100 |
| 3-(2,3-dichlorophenyl)-1-{4-[(4-chlorophenyl)methyl]piperazinyl}prop-2-yn-1-one [Compound C275] | < 100 |
| 3-(2,4-difluorophenyl)-1-{4-[(4-fluorophenyl)carbonyl]piperazinyl}prop-2-yn-1-one [Compound C424] | 100 to 500 |
| 3-(3,4-dichlorophenyl)-1-[4-(diphenylmethyl)piperazinyl]prop-2-yn-1-one [Compound C77] | < 100 |
| 3-(3,4-dichlorophenyl)-1-{4-[(4-chlorophenyl)carbonyl]piperazinyl}prop-2-yn-1-one [Compound C51] | < 100 |

| Substance | IC50 [nM] |
| --- | --- |
| 3-(3,4-dichlorophenyl)-1-{4-[(4-chlorophenyl)methyl]piperazinyl}prop-2-yn-1-one [Compound C291] | 100 to 500 |
| 3-(3,4-dichlorophenyl)-1-{4-[(4-fluorophenyl)carbonyl]piperazinyl}prop-2-yn-1-one [Compound C93] | < 100 |
| 3-(3,5-difluorophenyl)-1-(4-{[4-(trifluoromethyl)phenyl]carbonyl}piperazinyl)prop-2-yn-1-one [Compound C398] | 100 to 500 |
| 3-(3,5-difluorophenyl)-1-(4-{[4-fluoro-2-(trifluoromethyl)phenyl]methyl}piperazinyl)prop-2-yn-1-one [Compound C422] | 100 to 500 |
| 3-(3,5-difluorophenyl)-1-[4-(diphenylmethyl)piperazinyl]prop-2-yn-1-one [Compound C419] | 100 to 500 |
| 3-(3,5-difluorophenyl)-1-{4-[(4-fluorophenyl)carbonyl]piperazinyl}prop-2-yn-1-one [Compound C410] | 100 to 500 |
| 3-(3,5-difluorophenyl)-1-{4-[(4-methoxyphenyl)carbonyl]piperazinyl}prop-2-yn-1-one [Compound C467] | 100 to 500 |
| 3-(4-bromophenyl)-1-{4-[(4-bromophenyl)methyl]piperazinyl}prop-2-yn-1-one [Compound C364] | < 100 |
| 3-(4-bromophenyl)-1-{4-[(4-chlorophenyl)carbonyl]piperazinyl}prop-2-yn-1-one [Compound C55] | < 100 |
| 3-(4-bromophenyl)-1-{4-[(4-chlorophenyl)methyl]piperazinyl}prop-2-yn-1-one [Compound C342] | < 100 |
| 3-(4-fluorophenyl)-1-{4-[(4-fluorophenyl)methyl]piperazinyl}prop-2-yn-1-one [Compound C446] | 100 to 500 |
| 3-(4-methylphenyl)-1-(4-{[4-(trifluoromethyl)phenyl]methyl}piperazinyl)prop-2-yn-1-one [Compound C346] | < 100 |
| 3-[4-(trifluoromethyl)phenyl]-1-(4-{[4-(trifluoromethyl)phenyl]methyl}piperazinyl)prop-2-yn-1-one [Compound C411] | 100 to 500 |
| 4,6-dichloroindol-2-yl 4-(diphenylmethyl)piperazinyl ketone [Compound C250] | < 100 |
| 4-(diphenylmethyl)piperazinyl 1-methylindol-5-yl ketone [Compound C433] | 100 to 500 |
| 4-(diphenylmethyl)piperazinyl 2-naphthyl ketone [Compound C101] | < 100 |
| 4-(diphenylmethyl)piperazinyl 5-bromobenzo[b]thiophen-2-yl ketone [Compound C207] | < 100 |
| 4-(diphenylmethyl)piperazinyl 5-bromoindol-2-yl ketone [Compound C43] | < 100 |
| 4-(diphenylmethyl)piperazinyl 5-chlorobenzo[b]thiophen-2-yl ketone [Compound C36] | < 100 |

| Substance | IC50 [nM] |
| --- | --- |
| 4-(diphenylmethyl)piperazinyl 5-hydroxyindol-2-yl ketone [Compound C348] | < 100 |
| 4-(diphenylmethyl)piperazinyl 6-bromoindol-2-yl ketone [Compound C108] | < 100 |
| 4-(diphenylmethyl)piperazinyl 6-fluoro(3-quinolyl) ketone [Compound C227] | < 100 |
| 4-(diphenylmethyl)piperazinyl 8-fluoro(3-quinolyl) ketone [Compound C386] | < 100 |
| 4-(diphenylmethyl)piperazinyl indol-6-yl ketone [Compound C370] | < 100 |
| 4-(diphenylmethyl)piperazinyl pyrrolo[2,3-c]pyridin-2-yl ketone [Compound C431] | 100 to 500 |
| 4-[(2,4-difluorophenyl)methyl]piperazinyl 5-(trifluoromethyl)indol-2-yl ketone [Compound C412] | 100 to 500 |
| 4-[(3,5-dimethylphenyl)methyl]piperazinyl 5-methylindol-2-yl ketone [Compound C359] | 100 to 500 |
| 4-[(4-bromophenyl)sulfonyl]piperazinyl 5-chloroindol-2-yl ketone [Compound C333] | < 100 |
| 4-[(4-bromophenyl)sulfonyl]piperazinyl 5-methylindol-2-yl ketone [Compound C143] | < 100 |
| 4-[(4-chlorophenyl)carbonyl]piperazinyl 5-(trifluoromethyl)indol-2-yl ketone [Compound C64] | < 100 |
| 4-[(4-chlorophenyl)methyl]piperazinyl 2-(trifluoromethyl)benzimidazol-5-yl ketone [Compound C170] | 500 to 5000 |
| 4-bromophenyl 4-{[4-(methylethyl)phenyl]methyl}piperazinyl ketone [Compound C176] | 500 to 5000 |
| 4-{3-[4-(diphenylmethyl)piperazinyl]-3-oxoprop-1-ynyl}benzenecarbonitrile [Compound C326] | < 100 |
| 4-{[2-fluoro-4-(trifluoromethyl)phenyl]carbonyl}piperazinyl 5-(trifluoromethyl)indol-2-yl ketone [Compound C360] | < 100 |
| 4-{[3,5-bis(trifluoromethyl)phenyl]carbonyl}piperazinyl 5-(trifluoromethyl)indol-2-yl ketone [Compound C330] | < 100 |
| 4-{[3-fluoro-4-(trifluoromethyl)phenyl]methyl}piperazinyl 5-(trifluoromethyl)indol-2-yl ketone [Compound C389] | < 100 |
| 4-{[4-((2E)-3-phenylprop-2-enoyl)piperazinyl]methyl}benzenecarbonitrile [Compound C335] | < 100 |
